Source: patent publication US9023876B2, “Compounds and methods for regulating integrins” (Adhaere Pharmaceuticals, Inc., priority 2010, dated 2015)

How the values were obtained:
integrin CD11b/CD18 [1] = target: T1, integrin CD11b/CD18 (Homo sapiens, UniProt P11215); test: K562 cell adhesion assay, K562 CD11b/CD18 cells on immobilized fibrinogen (Fg); format: cell-based
T1 construct: expressed in transfected cells; host or cells: K562
Experimental: (§1) Cell adhesion assays with immobilized ligands were performed as previously described. Assays with all different K562 cell lines (K562, K562 CD11b/CD18 and K562 E320A) were performed in an identical fashion. Briefly, 384-well Highbind microtiter plates were coated with a 30 μL solution of ligand in Phosphate Buffered Saline, pH 7.4 containing 1 mM each of Ca^2+ and Mg^2+ ions (PBS^++) overnight at 4° C. Ligand Fg was coated at a concentration of […] and iC3b at […]. Heterodimer specific mAb IB4 (ascites) was coated at a 1:100 dilution. Subsequently, the non-specific sites in the wells were blocked by incubation with 1% non-fat milk in Tris Buffered Saline (TBS), pH 7.4, at room temperature for 1 h, except for the neutrophil assay, where the wells were blocked with TBS containing 1% gelatin. Next, the wells were washed three times with TBS. K562 cells were suspended in the assay buffer (TBS containing 1 mM each of Ca^2+ and Mg^2+ ions (TBS^++)) and were transferred to the ligand-coated wells (30,000 cells/well). Stock solution of the leukadherin family of small molecule agonists was prepared by dissolving the compounds in DMSO at a concentration of 2-10 mM. Final concentration of DMSO in the assay was approximately 1%. […] Cells remaining adherent were fixed using formaldehyde and were quantitated using imaging microscopy, as previously described. […]

integrin CD11b/CD18 [2] = target: T1, integrin CD11b/CD18; test: K562 CD11b/CD18 cell adhesion to immobilized iC3b; format: cell-based; details: increasing amounts of compound
Experimental: as §1

[3] = target: T2, CD11b A-domain (αA-domain) (Homo sapiens, UniProt P11215); test: αA-domain ligand-binding assay (GST-αA-domain to immobilized Fg); details: to level of activating mutant I316G
T2 construct: protein fragments spanning residues Gly^111-Gly^321 (321WT); made in house; host or cells: Escherichia coli
Excerpt: Purification of recombinant CD11b A-Domain (.Alpha.A-Domain). Recombinant human aA-domains were constructed and purified according to published protocols. […] The aA-domain in its active conformation was generated by replacing Ile^316 with Gly (1316G [55]) using forward primer 5′-[…]-3′ (SEQ ID NO: 3) and reverse primer 5′-[…]-3′ (SEQ ID NO: 4). The insert was digested with BamHI and SmaI and ligated into pGEX-2T vector also digested with BamHI and SmaI. All constructs were confirmed by direct DNA sequencing. All recombinant proteins were expressed as glutathione S-transferase (GST) fusion proteins in Escherichia coli and purified by affinity chromatography (Glutathione-beads, Sigma) following manufacturer's instructions. Purified protein preparations were dialyzed against 20 mm Tris-HCl, pH 7.5, 150 mm NaCl (Tris-buffered saline) and subsequently concentrated using Amicon-10 columns (Millipore) and stored at −80° C. […]
Maxisorp 96-well plates were coated with Fg (1 μg/well) in 10 mM PBS, pH 7.4 overnight and blocked with 1% bovine serum albumin in PBS. […] Subsequently, the amount of bound protein was determined by incubating with anti-GST antibody conjugated to horseradish peroxidase (GE, Piscataway, N.J.) (1:2000 dilution) for 1 hr. […] Absorbance was read using Spectromax M5 spectrophotometer (Molecular Devices, Sunnyvale, Calif.). […]

[4] = tested on: Tg(mpx::eGFP) zebrafish larvae; test: Zebrafish tailfin injury assay; format: in vivo; details: 4 h post injury; vehicle 34.6±4.5
Experimental: Transgenic Tg(mpx::eGFP) were maintained according to standard protocols. Tailfin injury in three days post fertilization (dpf) larvae was performed as described. Larvae were anesthetized by immersion in E3 with […] tricane, and tail was completely transected with a sterile microdissection scalpel in accordance with the approved protocols and were recovered for the indicated time points. Zebrafish larvae (3 dpf) were treated with compounds as described (Ref). Briefly, small molecule compounds were administered by immersing the larvae in a solution of the compounds in E3. The final concentration of DMSO was kept at <1%. For the assessment of the inflammatory response, injured larvae were analyzed at 4 h post-injury. For the post-wash assay, uninjured larvae incubated with the compounds in E3 for 4-8 h, washed into E3 and injured. Larvae were analyzed using a Leica DMI6000B microscope and an Hamamatsu Orca-3CCD camera using Volocity. Excitation was performed using the laser at 488 nm and the images were analyzed using Volocity. The number of fluorescent neutrophils at the site of inflammation were counted by eye in a blinded fashion. […]

O=C(O)c1ccc(-c2ccc(/C=C3\SC(=S)N(Cc4ccccc4)C3=O)o2)cc1 [LA1]
EC50 (integrin CD11b/CD18 [1]; K562 CD11b/CD18 cells, immobilized Fg, read-out: EC50 (effective concentration for 50% increase in adhesion), CD11b/CD18 dependent cell adhesion to Fg): 4 µM
relative affinity for CD11b/CD18 compared with IMB-10 (integrin CD11b/CD18 [1]; cell-based adhesion assay): higher affinity
K562 CD11b/CD18 cells adhering to immobilized iC3b (integrin CD11b/CD18 [2]): increase binding of CD11b/CD18 to iC3b in a dose-dependent fashion
binding of the WT αA to the immobilized ligand [3]: increased binding
neutrophil accumulation in the zebrafish tailfin (number of neutrophils) [4]: 15.6±1.7
